The numbers were not newly measured in patent publication US20190298669A1 (priority 2018, published 2019), which cites them from elsewhere.

The test system of one data set is viral RNP complexes. Conditions: Pleschka et al., 2001; cited from earlier work.
The conditions of data set [1]: human, in vivo; cited from earlier work.

In the case of `N#CC(=C(/N)Sc1ccccc1N)/C(C#N)=C(\N)Sc1ccccc1N` [U0126], in the data set with viral RNP complexes, the “nuclear cytoplasmic transport of viral RNP complexes” value is “leads to a blockade”.

`CCOC(=O)C1=C[C@@H](OC(CC)CC)[C@H](NC(C)=O)[C@@H](N)C1` [oseltamivir]: the “patients experiencing nausea and vomiting” value in data set [1] is listed as 10-15%.
